The values below are quoted from earlier work in patent publication EP4219603A1, “A METHOD FOR PURIFICATION OF ORGANIC WATER-SOLUBLE POLYMERS FROM HYDROPHOBIC CONTAMINANTS” (Ustav experimentálnej fyziky SAV, v.v.i., priority 2022, dated 2023).

Where two headings read alike, the source gives them in different places.

For the data set the following is noted: logarithm of the octanol/water partition coefficient.
The mark [1] stands for this setting: contaminants from Examples 1 to 9 identified in GC-MS HS-SPME elugrams.
[2] abbreviates: model contaminants added to the polymer.

As for `CCCCCCCCCCCCCC` [tetradecane], under setting [1], the “log P” value is given as 8.19.
With `c1ccc(-c2ccccc2)cc1` [bifenyl], the “log P” value under setting [1] is 4.00.
On to `CCCCC(CC)COC(=O)c1ccccc1` (stereo not drawn) [2-ethylhexyl benzoate], for which the “log P” value under setting [1] is on record as 5.73.
With `Clc1cc(Cl)cc(-c2ccccc2)c1` [dichlorobiphenyl (PCB 14)], the “log P” value runs as follows: under setting [1], 5.41; under setting [2], 5.41.
As for `CC(C)c1ccc2c(c1)CC[C@H]1[C@](C)(CO)CCC[C@]21C` [dehydroabietol], the “log P” value under setting [1] was 6.35.
As to `C[C@]12CC[C@H]3C(=CCc4cc(OC(=O)c5ccccc5)ccc43)[C@@H]1CCC2=O` [equilin benzoate], the “log P” value under setting [1] is 5.63.
`CCCCCCCCCCCCC` [tridecane]: the “log P” value under setting [1] is on record as 7.66.
For the molecule `CC(C)COC(=O)c1ccccc1C(=O)OCC(C)C` [di-isobutyl phtalate], the log partition coefficient (log P) under setting [1] is reported as 4.46.
In the case of `CCCCCCCCCCCC(C)=O` [2-tridecanone], under setting [1], the “log P” value is on record as 5.16.
Consider `CCCCCCCCCCCCCCCC` [hexadecane], for which the log partition coefficient (log P) under setting [1] was 9.26.
As to `CCCCCCCCCCCC(=O)OCC` [ethyl dodecanoate], the “log P” value is, setting by setting: under setting [1], 6.00; under setting [2], 6.00.
Consider `CCCCCCCCCCCCCC(=O)OC(C)C` [isopropyl tetradecanoate], for which, under setting [1], the “log P” value is reported as 7.43.
As to `CCCCCCCCCCCC` [dodecane], the “log P” value under setting [1] is listed as 7.13.
In the case of `CCCCCCCCCCCC(=O)OC(C)C` [isopropyl dodecanoate], the lipophilicity (log P) under setting [1] is on record as 6.37.
In the case of `CCCCCCCCCCCCCCCCCC` [octadecane], the “log P” value is, setting by setting: under setting [1], 10.32; under setting [2], 10.32.
